Several values for one entry are separate records, joined by “and”; a condition that tells them apart may be missing. Equal values may be shown once.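 Grown in 96-well plates, cells were treated for 48 hours with each compound at five concentrations. Insufficient inhibition: endpoint recorded as highest concentration tested. GI50 = concentration required for 50% inhibition of growth. TGI marks complete inhibition of growth.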

The TGI is the concentration giving total growth inhibition. The term GI50 denotes the concentration at which growth is held to half of that of the control.

Some test systems named below: SK-OV-3 ovarian; NCI-H522 lung; HOP-92 NSCLC; A498 renal; DLD-1 colon; KM12 colon; TK-10 renal; SK-MEL-5 melanoma; DU-145 prostate; SNB-78 CNS.
What all share (test): DTP human tumour cell line panel, 48 h

For `CCCCCCCCCCCCN(O)C(=O)c1ccccc1`, the total growth inhibition concentration (TGI) was 92.1 µM in the assay with SK-OV-3 ovarian; above 100 µM in the assay with NCI-H522 lung; 71.8 µM in the assay on HOP-92 NSCLC; 88.3 µM in the assay on A498 renal; above 100 µM in the assay with DLD-1 colon; above 100 µM with KM12 colon. In the assay on TK-10 renal, this molecule showed a TGI above 100 µM.

With `CC(=O)NNc1nc(C)c(C(/C=C/c2ccc(Cl)cc2)=N/NC(=O)C[N+](C)(C)C)s1`, the TGI in the assay on SK-OV-3 ovarian, with NCI-H522 lung, in the assay with HOP-92 NSCLC, with A498 renal, in the assay on SK-MEL-5 melanoma and in the assay with DLD-1 colon was above 100 µM in each case. In addition, the TGI in the assay on KM12 colon and with TK-10 renal was above 100 µM in each case.

For the molecule `CC1=C(c2cc(C(=O)Nc3cccc(C(F)(F)F)c3)ncn2)Sc2ccccc2N1`, the TGI in the assay on SK-OV-3 ovarian, in the assay on NCI-H522 lung, in the assay on HOP-92 NSCLC, with A498 renal, in the assay on SK-MEL-5 melanoma and with DLD-1 colon was above 100 µM each time. In addition, the TGI with KM12 colon and in the assay with TK-10 renal was above 100 µM each time.

Turning to `COc1ccccc1S(=O)(=O)Nc1ccc2c(c1)CN(C)C(=O)N2`, the GI50 was 4.47 µM and 5.15 µM with SK-OV-3 ovarian; 2.34 µM and 4.75 µM in the assay with NCI-H522 lung; 2.22 µM and 1.18 µM with HOP-92 NSCLC; 1.5 µM and 2.25 µM with A498 renal; 67.4 µM and 33.1 µM in the assay with DU-145 prostate; 3.88 µM and 4.42 µM with SK-MEL-5 melanoma. For the same molecule, the GI50 with KM12 colon is 14.6 µM and 7.41 µM; in the assay on TK-10 renal, 2.14 µM and 1.45 µM. Also, the TGI in the assay on SK-OV-3 ovarian was above 100 µM; in the assay with NCI-H522 lung it was above 91.7 µM; in the assay with HOP-92 NSCLC, > 51.9 µM and 71.6 µM; with A498 renal, 22.6 µM and 10.9 µM; in the assay on DU-145 prostate, above 100 µM; in the assay on SK-MEL-5 melanoma it was above 100 µM. The TGI was above 100 µM in the assay with KM12 colon; > 95.5 µM and 50 µM in the assay with TK-10 renal.

Turning to `COc1ccc2c(c1)[n+](=O)c(C(=O)/C=C/c1cc(OC)c(OC)c(OC)c1)c(C)n2[O-]`, the GI50 in the assay with SK-OV-3 ovarian was 21.3 µM; in the assay with NCI-H522 lung it was 19 µM; in the assay with HOP-92 NSCLC, 12.3 µM; with A498 renal it was 16.4 µM; with DU-145 prostate, 10.7 µM; in the assay with SK-MEL-5 melanoma, 40.4 µM. The GI50 in the assay with KM12 colon was above 100 µM; in the assay on TK-10 renal it was 18.9 µM. For the same molecule, the TGI in the assay with SK-OV-3 ovarian is 51.7 µM; in the assay with NCI-H522 lung, 56.6 µM; with HOP-92 NSCLC, 30.8 µM; in the assay with A498 renal, 57.5 µM; with DU-145 prostate, 25.4 µM; in the assay on SK-MEL-5 melanoma, above 100 µM. Besides, the TGI in the assay on KM12 colon is above 100 µM; with TK-10 renal, 36 µM.

Turning to `CCOC(=O)Nc1ccc(-c2nc(-c3cccc(OC)c3)c(-c3ccnc(Br)c3)[nH]2)cc1`, the GI50 in the assay with SK-OV-3 ovarian is 3.9 µM; in the assay with NCI-H522 lung, 2.73 µM; in the assay on HOP-92 NSCLC, 2.36 µM; in the assay with A498 renal, 1.94 µM; in the assay with DU-145 prostate it was 3.24 µM; in the assay with SK-MEL-5 melanoma, 1.83 µM. Further, the GI50 with KM12 colon is 2.51 µM; in the assay on TK-10 renal it was 3.88 µM. Also, the TGI was above 100 µM in the assay on SK-OV-3 ovarian; 9.16 µM in the assay with NCI-H522 lung; 7.69 µM in the assay with HOP-92 NSCLC; 7.06 µM in the assay with A498 renal; above 100 µM in the assay on DU-145 prostate; 3.43 µM in the assay with SK-MEL-5 melanoma. For the same molecule, the TGI was 9.06 µM with KM12 colon and above 100 µM in the assay on TK-10 renal.

Turning to `Cn1c(=S)c2[nH]c(SCCN3CCCC3)nc2n(C)c1=O`, the TGI in the assay on SK-OV-3 ovarian, with NCI-H522 lung, in the assay on HOP-92 NSCLC, in the assay with A498 renal, in the assay with DU-145 prostate and in the assay with SK-MEL-5 melanoma was above 100 µM each time. In addition, the TGI in the assay with KM12 colon and in the assay on TK-10 renal was above 100 µM throughout.

As to `COC12CC(=O)C(C(C)=O)=C(O)C1(C)c1c(OC(C)=O)c(C)c(O)c(C(C)=O)c1O2` (stereo not given), the TGI was 52 µM in the assay on HOP-92 NSCLC; 78.1 µM in the assay with A498 renal; above 100 µM in the assay with SNB-78 CNS; above 100 µM with KM12 colon; 69.7 µM with TK-10 renal.

For `COC1=Nc2ccccc2S(=O)(=O)C=C1`, the TGI was above 100 µM with SK-OV-3 ovarian; 2.81 µM in the assay on NCI-H522 lung; 15.2 µM with HOP-92 NSCLC; 33 µM in the assay with A498 renal; 31.4 µM with DU-145 prostate; 24.5 µM with SK-MEL-5 melanoma. Further, the TGI with KM12 colon was found to be 28.4 µM; in the assay with TK-10 renal, 11.3 µM. In the assay with HOP-92 NSCLC, the GI50 was 0.742 µM.

For `Cc1nc(N)sc1C(=O)Nc1cc(C(=O)NCCCN(C)C)n(C)c1`, the GI50 was above 100 µM in the assay on SK-OV-3 ovarian; above 100 µM with NCI-H522 lung; above 100 µM in the assay on HOP-92 NSCLC; above 100 µM in the assay with A498 renal; 67.3 µM with DU-145 prostate; above 100 µM with SK-MEL-5 melanoma. Also, the GI50 with KM12 colon and in the assay with TK-10 renal was above 100 µM throughout. Further, the TGI in the assay on SK-OV-3 ovarian, in the assay on NCI-H522 lung, with HOP-92 NSCLC, in the assay with A498 renal, in the assay on DU-145 prostate and with SK-MEL-5 melanoma was above 100 µM in each case. The TGI in the assay with KM12 colon and in the assay on TK-10 renal was above 100 µM each time.

In the case of `O=C(OCc1ccc2c(Cl)cc(Cl)c(O)c2n1)c1cc2ccccc2[nH]1`, the GI50 is 3.6 µM in the assay on SK-OV-3 ovarian; 0.361 µM with NCI-H522 lung; 0.228 µM in the assay on HOP-92 NSCLC; 1.63 µM in the assay on A498 renal; 0.916 µM in the assay with DU-145 prostate; 1.33 µM in the assay with SK-MEL-5 melanoma. The results for the GI50 in the assay with KM12 colon and with TK-10 renal were 1.69 µM and 0.553 µM, respectively. For the same molecule, the TGI with SK-OV-3 ovarian is 13.3 µM; in the assay on NCI-H522 lung, 1.15 µM; in the assay with HOP-92 NSCLC, 0.722 µM; with A498 renal, 3 µM; with DU-145 prostate, 2.19 µM; in the assay with SK-MEL-5 melanoma, 2.63 µM. Besides, the TGI was determined as 3.38 µM in the assay with KM12 colon and 1.47 µM in the assay with TK-10 renal.

Regarding `CN(CCCl)c1ccc(/C=C/C2=[N+](C)c3ccccc3C2(C)C)cc1`, the GI50 was 0.713 µM with SK-OV-3 ovarian; 0.296 µM in the assay with NCI-H522 lung; 0.288 µM in the assay on HOP-92 NSCLC; 1.34 µM in the assay on A498 renal; 0.598 µM in the assay on DU-145 prostate; 0.532 µM in the assay with SK-MEL-5 melanoma. The GI50 is 0.355 µM in the assay on KM12 colon and 2.37 µM with TK-10 renal. Moreover, the TGI stood at 5.41 µM in the assay on SK-OV-3 ovarian; 3.89 µM in the assay with NCI-H522 lung; 2.2 µM with HOP-92 NSCLC; 12.6 µM in the assay with A498 renal; 15.3 µM in the assay with DU-145 prostate; 2.03 µM with SK-MEL-5 melanoma. Besides, the TGI came to 1.55 µM in the assay on KM12 colon and 14.9 µM in the assay on TK-10 renal.

Consider `CS(=O)(=O)CCNCc1ccc(-c2ccc3ncnc(Nc4ccc(OCc5ccccc5)c(Cl)c4)c3c2)o1`, for which the GI50 is 0.0416 µM in the assay with SK-OV-3 ovarian; 2.2 µM in the assay with NCI-H522 lung; 3.06 µM in the assay on HOP-92 NSCLC; 1.56 µM in the assay with A498 renal; 7.91 µM in the assay with DU-145 prostate; 2.98 µM in the assay with SK-MEL-5 melanoma. The GI50 in the assay on KM12 colon is 6.41 µM; in the assay with TK-10 renal, 0.158 µM. In addition, the TGI was above 8.58 µM in the assay with SK-OV-3 ovarian; 6.79 µM with NCI-H522 lung; 11.3 µM with HOP-92 NSCLC; 9.33 µM in the assay with A498 renal; above 25 µM with DU-145 prostate; 6.08 µM in the assay on SK-MEL-5 melanoma. Besides, the values for the TGI in the assay with KM12 colon and with TK-10 renal were 17.8 µM and above 14.1 µM, respectively.

`C=C1C(=O)O[C@H]2[C@H]1CC/C(COC(=O)c1ccc(C#N)cc1)=C\CC[C@@]1(C)O[C@@H]21`: the GI50 in the assay on SK-OV-3 ovarian is 15.8 µM; in the assay on NCI-H522 lung, 1.55 µM; in the assay on HOP-92 NSCLC it was 1.59 µM; with A498 renal it was 15.4 µM; with DU-145 prostate, 1.5 µM; in the assay on SK-MEL-5 melanoma, 1.85 µM. Besides, the GI50 with KM12 colon was 3.94 µM; in the assay with TK-10 renal it was 3.99 µM. For the same molecule, the TGI in the assay with SK-OV-3 ovarian is 29.2 µM; with NCI-H522 lung it was 3.35 µM; with HOP-92 NSCLC it was 3.8 µM; with A498 renal, 30 µM; in the assay with DU-145 prostate, 2.83 µM; in the assay with SK-MEL-5 melanoma, 3.75 µM. The figures for the TGI in the assay with KM12 colon and in the assay on TK-10 renal were 14.8 µM and 10.8 µM, respectively.

For `CCCCCCCCCCCCOC1C(CNC(=O)C2OC3OC(C)(C)OC3C2NC(=O)CN2CCCCCC2)OC2OC(C)(C)OC21` (stereo not given), the GI50 is 16.2 µM in the assay on SK-OV-3 ovarian; 5.07 µM in the assay on NCI-H522 lung; 9.4 µM in the assay on HOP-92 NSCLC; 13 µM in the assay on A498 renal; 8.23 µM in the assay with DU-145 prostate; 1.85 µM with SK-MEL-5 melanoma. Further, the GI50 in the assay on KM12 colon was 5.44 µM; in the assay on TK-10 renal, 8.27 µM. Further, the TGI was 30.8 µM with SK-OV-3 ovarian; 17.8 µM in the assay on NCI-H522 lung; 22.8 µM with HOP-92 NSCLC; 26.3 µM in the assay with A498 renal; 20.5 µM with DU-145 prostate; 3.41 µM in the assay with SK-MEL-5 melanoma. The figures for the TGI with KM12 colon and with TK-10 renal were 19.1 µM and 22.5 µM, respectively.

With `O=C1CCc2c(sc3[nH]c(=S)n(Cc4ccccc4)c(=O)c23)C1`, the GI50 with SK-OV-3 ovarian was 2.68 µM; in the assay on NCI-H522 lung it was 0.852 µM; in the assay with HOP-92 NSCLC, 1.92 µM; in the assay on A498 renal, 3.44 µM; in the assay on DU-145 prostate, 5.06 µM; in the assay with SK-MEL-5 melanoma it was 1.86 µM. Besides, the GI50 is 1.73 µM in the assay with KM12 colon and 4.51 µM in the assay with TK-10 renal. In addition, the TGI in the assay with SK-OV-3 ovarian was 7.05 µM; in the assay with NCI-H522 lung, 5.05 µM; in the assay with HOP-92 NSCLC, 5.33 µM; with A498 renal it was above 100 µM; with DU-145 prostate, above 100 µM; with SK-MEL-5 melanoma, 3.74 µM. Besides, the TGI with KM12 colon was 6.56 µM; in the assay on TK-10 renal, above 100 µM.

(Values after PubChem BioAssay (NCI).)
